Values quoted from earlier work as cited in patent US6013628A, “Method for treating conditions of the eye using polypeptides” (Regents of the University of Minnesota, priority 1995, dated 2000).

How the values were obtained:
fibroblasts = details: cited from earlier work
[1] = system: human scleral fibroblasts; details: cited from earlier work
[2] = system: retinal pigmented epithelial cells; details: cited from earlier work
[3] = system: proliferative vitreoretinopathy rabbit model; details: cited from earlier work
[4] = system: retinal pigmented epithelial cells; details: Avery et al. 1986; cited from earlier work

Substance | Fibroblast-mediated contraction of type I collagen gels (fibroblasts) | Proliferation of human scleral fibroblasts [1] | Proliferation of retinal pigmented epithelial cells [2] | Postoperative bleeding ([3]; rabbit, in vivo) | Development of intraocular fibrin membranes ([3]; standardized PVR rabbit model) | Adhesion of retinal pigmented epithelial cells to fibronectin, type I collagen, type II collagen and lens capsule basement membrane [4]
heparin | inhibit | inhibits the proliferation | inhibits the proliferation | increased postoperative bleeding was observed | prevent the development of intraocular fibrin membranes | 
Arg-Gly-Asp-Ser (RGDS) |  |  |  |  |  | inhibit the adhesion
